Data on one molecule can be found in US10947229B2, “Dimethyl amino azetidine amides as JAK inhibitors” (THERAVANCE BIOPHARMA R&D IP, LLC, priority 2018, dated 2021).

As a reminder, the inhibition is the percentage by which the read-out fell short of the control. The low end stands for little suppression, the high end for strong suppression.

The test system of data set [1] is IFNγ induced CXCL10 secretion. As to the kind of experiment: Inhibition of IFNγ induced CXCL10 in human 3D airway cultures. Type of data set: cell-based. Conditions: 192 h, 8 days, 4 donors. The method, then: (§1) EpiAirway tissue cultures were obtained from Mattek (AIR-100). Cultures were derived from asthmatic donors. In a cell culture insert, human derived tracheal/bronchial epithelial cells were grown and differentiated on a porous membrane support, allowing an air-liquid interface with warmed culture medium below the cells and a gaseous test atmosphere above. Tissues were cultured in maintenance media ([…]) in a 37° C., 5% CO2 humidified incubator. Four donors were tested. On Day 0, tissue cultures were treated with test compounds in liquid interface at 10 μM, 1 μM and/or 0.1 μM. Compounds were diluted in dimethyl sulfoxide (DMSO, Sigma) to a final concentration of 0.1%. DMSO at 0.1% was used as a vehicle control. […] Tissue cultures were maintained for 8 days. Media was replaced every 2 days with fresh media containing compounds and IFNγ or IL-27. On Day 8, tissue cultures and supernatants were collected for analysis. Supernatant samples were assayed for CXCL10 (IP-10) and CXCL9 (MIG) using luminex analysis (EMD Millipore). Data is expressed as % Inhibition+/-standard deviation (±STDV). Percent inhibition was determined by compound inhibitory potency against IFNγ or IL-27 induced CXCL10 or CXCL9 secretion compared to vehicle treated cells. Data is the average from 4 donors.

The next data set is described as follows: Lung S9 metabolism. The format is in vitro ADME, human. The method, then: The time 0, 15, 30, and 60 minute samples were analyzed for parent compound by high resolution LC-MS/MS. Lung S9 fractions from human (lot 1410245) were purchased from XenoTech LLC (Lenexa, Kans.). NADPH (Sigma Aldrich, N1630) and 3-phosphoadenosine 5-phosphosulfate (PAPS) (Sigma Aldrich, A1651) were purchased from Sigma Aldrich (St. Louis, Mo.). Acetonitrile and water were obtained from VWR (Radnor, Pa.) and were of HPLC grade or better. Raloxifene and formic acid was purchased from Sigma Aldrich (St. Louis, Mo.). Lung S9 incubations were performed in a water bath at 37° C. in a 96-well polypropylene plate. […] Louis, Mo.), 3 mM magnesium chloride (Sigma Aldrich, M1028) and in the presence of 100 μM PAPS (Sigma-Aldrich, St. […] Incubation volumes consisted of 400 μL and time points were taken at 0, 15, 30, and 60 minutes by the removal of a 70 μL aliquot and dilution into 140 μL acetonitrile (0% formic acid). All samples were centrifuged at 2250 g for 10 minutes at 5° C. Supernatant […] was taken from the centrifuged samples and diluted into 100 μL HPLC water containing internal standard. The samples were run on a Dionex Ultimate 3000 Auto sampler and analyzed using a Thermo Q-Exactive High Resolution Mass Spectrometer (Thermo, Waltham, Mass.) in Full Scan mode in conjunction with an Atlantis T3 column 3 μM-2.1×50 mm (Waters Inc., 186003717). Mobile Phase A consisted of Water+0.2% formic acid and Mobile Phase B consisted of acetonitrile +0.2% formic acid. Peak integration was accomplished using Gubbs GMSU software (Gubbs Inc., Alpharetta, Ga.). For each sample, peak area ratios were calculated by dividing the analyte peak area by the internal standard peak area. For each incubation, the peak area ratios of the analytes in each t0 was set to 100%, and the peak areas ratios from the 60 minute samples were converted to percentages remaining relative to the corresponding t0. Determination of sulfate metabolite formation was made qualitatively by observation of early-eluting peak in the parent ion channel which, based on historical internal data, corresponded to the O-sulfate metabolite of each parent compound.

The test system of data set [2] is GM-CSF stimulated STAT5 phosphorylation in CD14+ monocytes. As to the kind of experiment: Cellular JAK potency assay: inhibition of GM-CSF-induced pSTAT5. Type of data set: cell-based. The conditions noted are these: Monocyte; CD14+ monocytes from human whole blood; read-out: pIC50, inhibition of GM-CSF-induced pSTAT5 (converted). The method, then: The potency of test compounds for inhibition of granulocyte-macropage colony-stimulating factor (GM-CSF) stimulated STAT5 phosphorylation was measured in CD14-positive (CD14+) monocytes derived from human whole blood (Stanford Blood Center) using flow cytometry. Because GM-CSF signals through JAK, this assay provides a measure of JAK cellular potency. Monocytes were identified using a fluorescein isothiocyanate (FITC) conjugated anti-CD14 antibody (Clone RM052, Beckman Coulter), and an Alexa Fluor 647 conjugated anti-pSTAT5 antibody (pY694, BD Biosciences) was used to detect STAT5 phosphorylation. Human peripheral blood mononuclear cells (PBMC) were isolated from human whole blood of healthy donors using a ficoll gradient. […] Cells were washed twice with FACS buffer, and then re-suspended in 1:10 […] Alexa Fluor 647:FACS buffer (100 μL) for 30 min at RT in the dark, washed twice in FACS buffer, and analyzed using a MACSQuant flow cytometer (Miltenyi). To determine the inhibitory potency of the test compound, the median fluorescent intensity (MFI) of pSTAT5 was measured in CD14+ monocytes. IC50 values were determined from analysis of the inhibition curves of MFI vs compound concentration. Data are expressed as pIC50 (negative decadic logarithm IC50) values.

The subject of data set [3] is IFNγ induced CXCL9 secretion. The experiment in a line: Inhibition of IFNγ induced CXCL9 in human 3D airway cultures. Type of data set: cell-based. The conditions noted are these: 192 h, 8 days, 4 donors. The method, then:
as §1

The structures appear in SMILES notation.

In the case of `CCc1cc(O)ccc1-c1ccc2c(-c3nc4c([nH]3)CN(C(C)C)[C@H](C(=O)N3CC(N(C)C)C3)C4)n[nH]c2c1` [Compound 1, (S)-(3-(dimethylamino)azetidin-1-yl)(2-(6-(2-ethyl-4-hydroxyphenyl)-1H-indazol-3-yl)-5-isopropyl-4,5,6,7-tetrahydro-3H-imidazo[4,5-c]pyridin-6-yl)methanone], the inhibition at 0.1 µM in data set [1] (0.1 μM) was 18%; in data set [3] (0.1 μM), 16%. Moreover, the inhibition at 1 µM in data set [1] (1 μM) was determined as 76%; in data set [3] (1 μM), 93%. Further, the inhibition at 10 µM in data set [1] (10 μM) and in data set [3] (10 μM) was 100% in each case. Moreover, the “Compound Remaining at 60 min (%)” value in “Lung S9 metabolism” (human lung S9, 1 μM compound, 1 mg/mL S9 protein, 60 min) amounted to 81%. Besides, in “Lung S9 metabolism” (human lung S9, qualitative O-sulfate metabolite peak), the “Sulfate Appearance” value is recorded as “Yes”. In “Lung S9 metabolism” (human lung S9 fraction, pH 7.4, human lung S9, 1 μM compound, 1 mg/mL S9 protein, NADPH and PAPS, read-out: Clearance), the microsomal CLint at 1 µM stood at 3.5 µL/min/mg. For the same molecule, the IC50 in data set [2] is 0.126 µM.
